One may read the Ki as the dissociation constant of the complex between target and ligand, obtained from inhibition or displacement.

One compound from patent publication US5817756A, “Pseudo- and non-peptide bradykinin receptor antagonists” (Scios Inc., priority 1995, dated 1998) can be followed below.

Assay [1] deals with T1, human bradykinin B2 receptor (Homo sapiens, UniProt P30411).
T1 construct: The HindIII/XbaI fragment of one full-length clone, 126A, was inserted into pcDNAI neo vector; expressed in transfected cells
T1 sequence (P30411 1-391): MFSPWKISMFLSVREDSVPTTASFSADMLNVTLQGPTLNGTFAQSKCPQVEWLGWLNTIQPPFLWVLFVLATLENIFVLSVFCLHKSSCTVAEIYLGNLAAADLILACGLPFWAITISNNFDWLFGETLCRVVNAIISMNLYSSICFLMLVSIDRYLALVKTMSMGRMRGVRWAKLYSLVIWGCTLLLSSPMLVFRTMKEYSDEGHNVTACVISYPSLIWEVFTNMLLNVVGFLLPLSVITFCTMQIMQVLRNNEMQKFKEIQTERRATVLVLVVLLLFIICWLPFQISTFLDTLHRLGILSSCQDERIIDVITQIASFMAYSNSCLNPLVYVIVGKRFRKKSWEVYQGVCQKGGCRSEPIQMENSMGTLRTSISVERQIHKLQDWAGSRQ
Description: Radioligand binding, H2O.2 cell membranes, 3H-NPC17731. The note with it: Table 2; 3H-NPC17731; read-out: Radioligand Binding, Ki Human 3H17731. On the procedure:
(§1) A human bradykinin B2 receptor was expressed in CHO/K cells. Briefly, approximately 2×10^6 plaques from a human uterus λgt10 cDNA library (Clontech Laboratories; Palo Alto, Calif.) were screened using a PCR fragment containing the coding region of the rat B2 receptor. This probe was generated by random-primed synthesis in the presence of α[^32 P]dATP. Duplicate filters were hybridized overnight at 42° C. in 1M NaCl, 50 mM Tris pH 7.5, 5× Denhardt's, 200 μg/ml salmon sperm DNA, 1% SDS, and 20% formamide. The filters were washed at 65° C. in 1× SSC and 1% SDS. Coincident positively hybridizing plaques were purified and rescreened with the same probe and stringency conditions. EcoRI fragments of positive clones were inserted into Bluescript/KS II+vector (Stratagene; La Jolla, Calif.) for sequence determination.
(§2) The nucleotide sequence of the cloned human B2 receptors was determined using double-stranded DNA and the dideoxy chain termination method. Commercially available T3 and T7 oligonucleotides (USB; Cleveland, Ohio) and synthetic 21-mer oligonucleotides (DNA/RNA Synthesizer; applied Biosystems Inc.; Palo Alto, Calif.) from both the known rat sequence and the determined human sequence were used to identify the nucleotide sequence from the 5' untranslated end to the BglII site in the 3' untranslated end of the clone.
(§3) CHO/K cells were plated in 2 ml of growth medium (Ham's F12 with 10% FBS) per 6 well plate and incubated at 37° C., 5% CO2 until they were 60% confluent. For each well, 4, 12, and 16 μg of DNA was diluted in 100 μl Opti-MEM I reduced serum medium (Gibco/BRL; Gaithersburg, Md.). 12 μl of TransfectASE reagent (Gibco/BRL) was diluted in a separate aliquot of 100 μl Opti-MEM I. The DNA and TransfecASE solutions were combined, mixed gently, and incubated at 25° C. for 15 minutes. This solution was then diluted to 1 ml with Opti-MEM I. Each well was washed twice with Opti-MEM I and 1 ml of the DNA/TransfectAse complex was added to each well. After a 5 hour incubation at 37° C. and 5% CO2, 1 ml of Ham's F12 with 20% FBS was added to each well and cells were incubated overnight. Media was replaced with growth medium and incubated for additional 24 hours.
(§4) This assay measures the ability of a bradykinin antagonist compound to compete for binding to the human B2 receptor with tritiated bradykinin or tritiated NPC17731, a bradykinin analog which is known to bind the B2 receptor and act as a bradykinin antagonist.
(§5) H2O.2 cells were grown to confluency in Ham's F12 media containing 10% FBS and 500 μg/ml Geneticin. Growth media was aspirated and the monolayer washed once with Dulbecco's PBS without Ca^++ and Mg^++. Cells were scraped in Dulbecco's PBS and centrifuged at 2,000×g for 10 minutes. Pellets were resuspended in 25 mM TES, 1 mM 1,10-phenanthroline pH 6.8 buffer and homogenized using a Ploytron at setting 5 for 10 seconds. An aliquot was taken for a protein determination using a BioRad protein assay kit. Membranes were centrifuged at 48,000×g for 10 minutes at 4° C. Pellets were resuspended in the TES buffer with 0.1% BSA and 0.014% bacitracin. 0.5 ml aliquots were frozen in liquid N2 and stored at -80° C. for up to 2 weeks.
(§6) Membranes from H2O.2 cells previously prepared were thawed at 37° C. and diluted in 25 mM TES, […] 1,10-phenanthroline pH 6.8 containing BSA and bactiracin. […] Non-specific binding was determined with 1 μM bradykinin. The tubes were incubated 90 minutes at 25° C. and the assay was terminated by rapid vacuum filtration onto Whatman GF/B filters presoaked with 0.2% PEI for 3 hours followed by 2×3 ml aliquots of ice-cold 50 mM Tris, pH 7.4. Radioactivity was counted with a Beckman scintillation counter.

In assay [2] the target is T1, human bradykinin B2 receptor. Description: Radioligand binding, H2O.2 cell membranes, 3H-bradykinin. The note with it: Table 2, read-out: Radioligand Binding, Ki Human 3HBK. Here is the method: as §1, §2, §3, §4, §5, §6
A further assay deals with T2, human B2 receptor (Homo sapiens, UniProt P30411).
T2 construct: The HindIII/XbaI fragment of one full-length clone, 126A, was inserted into pcDNAI neo vector; expressed in transfected cells
T2 sequence (P30411 1-391): T1 sequence (P30411 1-391)
The experiment in a line: Whole cell binding assay, 3H-bradykinin. The note with it: Table 2, whole cells, read-out: Radioligand Binding, Ki Whole Cell 3HBK. On the procedure: Binding to confluent monolayers of transfected cells expressing the human B2 receptor (7,000 fmol/receptor/mg) grown in 24-well plates was measured by incubating cells in 1 ml cell binding buffer (PBS/Ca/Mg, 1% BSA, 0.14 mg/ml bacitracin) containing 10^-10 M ^3 H-bradykinin and various concentrations of unlabeled analogs for 4 to 10 hours at 4° C. Cells were washed three times with cell binding buffer and lysed in 0.1N NaOH. An aliquot of the lysate was counted to measure radioactivity bound.

Consider `N=C(N)NCCC[C@@H](N)C(=O)N[C@@H](CCCNC(=N)N)C(=O)N1CCC2(CC1)C(=O)N(CC(=O)N1CCc3c(n(CC(=O)N[C@@H](CCCNC(=N)N)C(=O)O)c4ccccc34)C1)CN2c1ccccc1` [Compound 2], for which the results for the Ki (in assay [1]; in assay [2]; on human B2 receptor) were 94 nM, 1800 nM and 10400 nM, respectively.
